Test results as given in ChEMBL document CHEMBL5247605, “Discovery of potent indazole-based human glutaminyl cyclase (QC) inhibitors as Anti-Alzheimer's disease agents” (Eur J Med Chem, 2022).
Calls of active or inactive are those of the source. The calls are words filed in the database; no cut-off is given here.

Assays:
[1] = Cytotoxicity against mouse HT-22 cells assessed as cell viability at 10 uM incubated for 18 hrs by MTT assay relative to control; format: toxicity, cell-based; details: read-out: Activity
[2] = organism: Mus musculus; details: ICR, dose 10.0 mM, route icv
[3] = molecular target: hERG (KCNH2) (Homo sapiens, UniProt Q12809); test: Inhibition of hERG at 10 uM by fluorescence polarization assay relative to control; format: toxicity
[4] = system: Mus musculus; test: Antialzheimer activity in human amyloid beta (3 to 40 residues) induced ICR mouse model assessed as inhibition of pyroglutamate form of amyloid-beta formation in brain at 10 mM, icv by sandwich ELISA relative to control; format: functional
[5] = molecular target: Voltage-gated inwardly rectifying potassium channel KCNH2 (Homo sapiens, UniProt Q12809); test: Inhibition of hERG by fluorescence polarization assay; format: toxicity
[6] = Metabolic stability in mouse liver microsomes assessed as compound remaining after 30 mins; format: ADME, Microsome; details: read-out: Stability
[7] = Metabolic stability in human liver microsomes assessed as compound remaining after 30 mins; format: ADME, Microsome; details: read-out: Stability
[8] = molecular target: Glutaminyl-peptide cyclotransferase (Mus musculus, UniProt Q9CYK2); test: Inhibition of mouse glutaminyl cyclase
Chain of Glutaminyl-peptide cyclotransferase (Q9CYK2 whole entry): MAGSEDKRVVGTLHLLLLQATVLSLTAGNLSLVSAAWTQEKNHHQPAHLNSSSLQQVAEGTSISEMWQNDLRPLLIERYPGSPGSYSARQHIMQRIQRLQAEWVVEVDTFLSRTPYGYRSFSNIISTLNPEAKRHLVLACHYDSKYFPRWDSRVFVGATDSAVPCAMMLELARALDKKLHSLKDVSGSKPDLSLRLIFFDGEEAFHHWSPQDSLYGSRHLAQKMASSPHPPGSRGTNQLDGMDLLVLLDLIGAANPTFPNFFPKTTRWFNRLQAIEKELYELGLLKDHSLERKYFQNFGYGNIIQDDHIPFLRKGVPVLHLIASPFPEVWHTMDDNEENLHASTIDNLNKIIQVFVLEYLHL

Chain of Voltage-gated inwardly rectifying potassium channel KCNH2 (Q12809 whole entry): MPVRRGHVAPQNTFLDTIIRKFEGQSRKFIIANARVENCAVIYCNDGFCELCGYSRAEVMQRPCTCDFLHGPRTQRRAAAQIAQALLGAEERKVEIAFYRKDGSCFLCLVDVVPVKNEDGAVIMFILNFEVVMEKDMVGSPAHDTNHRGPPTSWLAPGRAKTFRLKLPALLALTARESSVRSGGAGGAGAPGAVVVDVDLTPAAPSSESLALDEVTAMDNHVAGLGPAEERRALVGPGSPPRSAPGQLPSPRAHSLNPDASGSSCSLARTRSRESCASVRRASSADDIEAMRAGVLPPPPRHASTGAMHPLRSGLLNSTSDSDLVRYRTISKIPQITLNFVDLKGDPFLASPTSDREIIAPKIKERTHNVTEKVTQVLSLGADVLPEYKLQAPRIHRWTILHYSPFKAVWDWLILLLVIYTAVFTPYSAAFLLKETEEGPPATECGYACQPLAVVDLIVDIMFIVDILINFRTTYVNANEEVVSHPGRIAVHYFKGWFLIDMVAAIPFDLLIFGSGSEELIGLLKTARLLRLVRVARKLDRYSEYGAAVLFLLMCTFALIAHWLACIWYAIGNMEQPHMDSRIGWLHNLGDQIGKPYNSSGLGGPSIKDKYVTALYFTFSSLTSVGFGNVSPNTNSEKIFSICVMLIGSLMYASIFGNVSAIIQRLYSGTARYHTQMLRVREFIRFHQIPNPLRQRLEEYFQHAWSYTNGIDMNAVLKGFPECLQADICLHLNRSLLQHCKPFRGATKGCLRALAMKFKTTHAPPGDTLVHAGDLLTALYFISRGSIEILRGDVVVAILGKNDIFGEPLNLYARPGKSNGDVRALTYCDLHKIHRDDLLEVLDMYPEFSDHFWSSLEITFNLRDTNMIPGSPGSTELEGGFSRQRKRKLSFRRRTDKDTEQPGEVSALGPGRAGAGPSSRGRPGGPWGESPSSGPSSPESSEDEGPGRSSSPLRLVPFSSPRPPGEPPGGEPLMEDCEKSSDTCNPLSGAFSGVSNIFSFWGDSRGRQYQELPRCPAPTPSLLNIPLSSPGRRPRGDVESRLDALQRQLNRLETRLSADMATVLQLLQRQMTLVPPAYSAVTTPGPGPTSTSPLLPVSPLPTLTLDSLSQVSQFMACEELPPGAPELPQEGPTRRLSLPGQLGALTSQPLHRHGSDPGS
Chain of hERG (KCNH2) (Q12809 whole entry, the tested form may be a part): as the sequence (Q12809 whole entry) above

Row | SMILES | viability at 18 h, 10 µM [1] [%] | inhibition [2] | inhibition at 10 µM [3] [%] | inhibition (INH) [4] [%] | IC50 [5] [µM] | remaining at 0.5 h [6] [%] | remaining at 0.5 h [7] [%] | IC50 [8] [µM]
1 | Cc1nn(C)c2cc(N(C(=O)NCCCn3cncc3C)C3CCCCC3)ccc12 | 102 | inactive | 52.2 |  |  |  |  | 
2 | Cc1nn(C)c2ccc(N(Cc3ccc(F)cc3)C(=O)NCCCn3cncc3C)cc12 | 108 |  | 63.6 | 7 | > 10 |  |  | 
3 | Cc1n[nH]c2cc(N(CC3CCCC3)C(=O)NCCCn3cncc3C)ccc12 | 96.9 |  | 80.8 | 25.5 | > 10 | 11.8 | 37 | 0.0182
4 | Cc1nn(C)c2ccc(N(Cc3cccnc3)C(=O)NCCCn3cncc3C)cc12 | 98.3 | inactive | 44.1 |  | < 10 |  |  | 
5 | CCCOc1ccc([C@@H]2CNC(=O)N2c2ccc3nc[nH]c3c2)cc1 |  |  |  | 17.1 |  |  |  | 
6 | Cc1n[nH]c2ccc(N(C(=O)NCCCn3cncc3C)C3CCCCC3)cc12 | 100 |  | 74.4 | 8 | > 10 |  |  | 
7 | Cc1cncn1CCCNC(=O)N(Cc1ccc(F)cc1)c1ccc2c(C)n(C)nc2c1 | 91.3 |  | 52 | 15 |  |  |  | 
8 | Cc1nn(C)c2ccc(NC(=O)NCCCn3cncc3C)cc12 | 104 | inactive | 54.4 |  |  |  |  | 
9 | Cc1nn(C)c2cc(N(Cc3ccc(F)cc3)C(=O)NCCCn3cncc3C)ccc12 | 102 | inactive | 56.5 |  |  |  |  | 
10 | Cc1n[nH]c2ccc(N(Cc3ccc(F)cc3)C(=O)NCCCn3cncc3C)cc12 | 97.2 | inactive | 80.6 |  | > 10 |  |  | 
11 | Cc1nn(C)c2cc(N(CC3CCCC3)C(=O)NCCCn3cncc3C)ccc12 | 107 | inactive | 70.3 |  | > 10 |  |  | 
12 | Cc1nn(C)c2ccc(N(C(=O)NCCCn3cncc3C)C3CCCCC3)cc12 | 99.1 | inactive | 58.1 |  | > 10 |  |  | 
13 | Cc1n[nH]c2cc(N(C(=O)NCCCn3cncc3C)C3CCCCC3)ccc12 | 100 |  | 47.6 | 25 | < 10 | 18.4 | 50.4 | 0.0342
14 | Cc1nn(CCCCc2ccnc(N)c2)c2ccc(NC(=O)NCCCn3cncc3C)cc12 | 98.7 |  | 50.3 | 7.7 |  |  |  | 
15 | Cc1n[nH]c2cc(N(Cc3ccc(F)cc3)C(=O)NCCCn3cncc3C)ccc12 | 92.1 |  | 61.9 | 38.4 | > 10 | 7.2 | 40.1 | 0.0299
16 | Cc1nn(C)c2ccc(N(CC3CCCC3)C(=O)NCCCn3cncc3C)cc12 | 104 | inactive | 81.5 |  | > 10 |  |  | 
